Source: the supplement of paper PMC10307832

The cell lines below were run with C=CCn1c(=O)c2cnc(Nc3ccc(N4CCN(C)CC4)cc3)nc2n1-c1cccc(C(C)(C)O)n1 [Adavosertib] (assay: relative viability (nuclei count vs DMSO), 5 days (fraction); higher = more cells survive). Conditions: 0.3162 µM.
Procedure, shortened: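 Acceptance criteria were a control CV below 25% and at least one doubling per plate. Lung cancer cell lines in 1536-well plates got five library-drug doses (not always all listed) √10 apart by pinning and were left 5 days with no medium change. Viability divides treated-well nuclei by vehicle-well nuclei and is the median across plates. Nuclei were counted by MetaXpress from 4× Hoechst images.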
COR-L 105 was tested, and the relative viability was 0.747. For Calu-6, the relative viability was 0.6. With ChaGo-K-1 the relative viability was 0.918. With EBC-1 the relative viability was 0.971. For EKVX, the relative viability was 1.1. Work on EPLC-272H yielded a relative viability of 0.497. Cell Line H3255 has a relative viability of 1.08. Work on HARA yielded a relative viability of 0.897. Work on HCC-15 yielded a relative viability of 1.23. Cell Line HCC-44 has a relative viability of 0.984. In the case of HCC-78, the relative viability is reported as 1.04. HCC-366 was tested, and the relative viability was 1.01. In the case of HCC-827, the relative viability is reported as 1.03. HOP-62 showed a relative viability of 1.18. For IA-LM, the relative viability was 1.03. LC-2-ad gave a relative viability of 1.13. Cell Line LCLC-97TM1 has a relative viability of 0.71. Work on LCLC-103H yielded a relative viability of 0.985. With LK-2 the relative viability was 1.05. For LOU-NH91, the relative viability was 0.918. Work on LU99A yielded a relative viability of 0.924. LXF-289 showed a relative viability of 1.04. Work on NCI-H23 yielded a relative viability of 0.313. NCI-H322M showed a relative viability of 0.61. Work on NCI-H358 yielded a relative viability of 0.467. With NCI-H441 the relative viability was 1.02. With NCI-H460 the relative viability was 1.08. NCI-H522 showed a relative viability of 1.06. Cell Line NCI-H1623 has a relative viability of 1.01. For NCI-H1648, the relative viability was 0.71. With NCI-H2342 the relative viability was 0.96. In the case of SW 900, the relative viability is reported as 0.49.

The cell lines below were run with C=CCn1c(=O)c2cnc(Nc3ccc(N4CCN(C)CC4)cc3)nc2n1-c1cccc(C(C)(C)O)n1 [Adavosertib] + CS(=O)(=O)N1CCN(Cc2cc3nc(-c4cccc5[nH]ncc45)nc(N4CCOCC4)c3s2)CC1 [Pictilisib] (partner 1 µM) (assay: relative viability (nuclei count vs DMSO), 5 days (fraction); higher = more cells survive). Conditions: first compound 0.01 µM.
Procedure, shortened: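 Relative viability equals treated-well nuclei counts divided by vehicle-well nuclei counts. Counts came from 4× images of lung cancer cell lines grown in 1536-well plates for 5 days after pin-tool dosing on the day after seeding. Dosing used one drug alone or a fixed anchor-drug dose plus five library-drug doses (not always all listed) in √10 steps, and values are medians of duplicate plates.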
Work on 201T yielded a relative viability of 0.668. A549 was tested, and the relative viability was 0.505. Work on A-427 yielded a relative viability of 0.735. With ABC-1 the relative viability was 0.586. BEN gave a relative viability of 0.575. For COR-L23, the relative viability was 0.665. COR-L 105 gave a relative viability of 0.415. Cell Line Calu-6 has a relative viability of 0.922. ChaGo-K-1 showed a relative viability of 0.579. Cell Line EBC-1 has a relative viability of 0.387. Cell Line EKVX has a relative viability of 0.44. In the case of EPLC-272H, the relative viability is reported as 0.277. H3255 gave a relative viability of 0.502. HARA showed a relative viability of 0.409. HCC-15 gave a relative viability of 0.724. Cell Line HCC-44 has a relative viability of 0.518. Work on HCC-78 yielded a relative viability of 0.194. HCC-366 showed a relative viability of 0.155. For HCC-827, the relative viability was 0.985. For HOP-62, the relative viability was 0.771. With IA-LM the relative viability was 0.363. Work on LC-2-ad yielded a relative viability of 0.455. LCLC-103H showed a relative viability of 0.544. With LK-2 the relative viability was 0.549. LOU-NH91 gave a relative viability of 0.521. In the case of LU99A, the relative viability is reported as 0.341. Cell Line LXF-289 has a relative viability of 0.786. NCI-H23 showed a relative viability of 0.504. In the case of NCI-H358, the relative viability is reported as 0.356. NCI-H441 showed a relative viability of 0.561. NCI-H460 showed a relative viability of 0.315.

Same assay, conditions: first compound 0.03162 µM
In the case of 201T, the relative viability is reported as 0.683. Work on A549 yielded a relative viability of 0.513. Work on A-427 yielded a relative viability of 0.653. For ABC-1, the relative viability was 0.695. Work on BEN yielded a relative viability of 0.682. CAL-12T showed a relative viability of 0.396. COR-L23 was tested, and the relative viability was 0.636. Cell Line COR-L 105 has a relative viability of 0.384. Work on Calu-6 yielded a relative viability of 0.875. For ChaGo-K-1, the relative viability was 0.678. EBC-1 gave a relative viability of 0.429. For EKVX, the relative viability was 0.448. Cell Line EPLC-272H has a relative viability of 0.414. Cell Line H3255 has a relative viability of 0.452. Work on HARA yielded a relative viability of 0.461. HCC-15 gave a relative viability of 0.713. Cell Line HCC-44 has a relative viability of 0.647. HCC-78 was tested, and the relative viability was 0.221. HCC-366 showed a relative viability of 0.143. Work on HCC-827 yielded a relative viability of 1.05. HOP-62 gave a relative viability of 0.891. IA-LM gave a relative viability of 0.404. LC-2-ad was tested, and the relative viability was 0.587. For LCLC-97TM1, the relative viability was 0.146. LCLC-103H gave a relative viability of 0.517. Work on LK-2 yielded a relative viability of 0.622. With LOU-NH91 the relative viability was 0.508. Work on LU99A yielded a relative viability of 0.303. LXF-289 gave a relative viability of 0.746. NCI-H23 gave a relative viability of 0.51. With NCI-H322M the relative viability was 0.521. NCI-H358 gave a relative viability of 0.312. NCI-H441 gave a relative viability of 0.497. NCI-H460 was tested, and the relative viability was 0.355.

Same assay, conditions: first compound 0.1 µM
For 201T, the relative viability was 0.625. A549 gave a relative viability of 0.554. A-427 showed a relative viability of 0.684. ABC-1 was tested, and the relative viability was 0.528. In the case of BEN, the relative viability is reported as 0.587. CAL-12T showed a relative viability of 0.412. COR-L23 gave a relative viability of 0.722. With COR-L 105 the relative viability was 0.356. Calu-6 showed a relative viability of 0.788. With ChaGo-K-1 the relative viability was 0.663. EBC-1 was tested, and the relative viability was 0.382. With EKVX the relative viability was 0.433. Cell Line EPLC-272H has a relative viability of 0.303. H3255 showed a relative viability of 0.447. HARA gave a relative viability of 0.374. For HCC-15, the relative viability was 0.727. HCC-44 showed a relative viability of 0.526. HCC-78 showed a relative viability of 0.255. In the case of HCC-366, the relative viability is reported as 0.217. In the case of HCC-827, the relative viability is reported as 1.08. HOP-62 gave a relative viability of 0.762. IA-LM showed a relative viability of 0.418. In the case of LC-2-ad, the relative viability is reported as 0.424. LCLC-97TM1 gave a relative viability of 0.223. Work on LCLC-103H yielded a relative viability of 0.561. LK-2 gave a relative viability of 0.676. Work on LOU-NH91 yielded a relative viability of 0.544. LU99A was tested, and the relative viability was 0.354. Work on LXF-289 yielded a relative viability of 0.782. For NCI-H23, the relative viability was 0.49. NCI-H322M gave a relative viability of 0.504. In the case of NCI-H358, the relative viability is reported as 0.353. Cell Line NCI-H441 has a relative viability of 0.378. In the case of NCI-H460, the relative viability is reported as 0.289.

Same assay, conditions: first compound 0.3162 µM
Work on 201T yielded a relative viability of 0.654. Cell Line A549 has a relative viability of 0.382. A-427 was tested, and the relative viability was 0.798. For ABC-1, the relative viability was 0.627. With BEN the relative viability was 0.558. In the case of CAL-12T, the relative viability is reported as 0.274. For COR-L23, the relative viability was 0.266. COR-L 105 was tested, and the relative viability was 0.393. For Calu-6, the relative viability was 0.333. ChaGo-K-1 showed a relative viability of 0.631. EBC-1 gave a relative viability of 0.286. Cell Line EKVX has a relative viability of 0.437. In the case of EPLC-272H, the relative viability is reported as 0.295. H3255 was tested, and the relative viability was 0.402. HARA showed a relative viability of 0.269. HCC-15 showed a relative viability of 0.934. Work on HCC-44 yielded a relative viability of 0.62. Work on HCC-78 yielded a relative viability of 0.171. In the case of HCC-366, the relative viability is reported as 0.172. HCC-827 gave a relative viability of 0.937. In the case of HOP-62, the relative viability is reported as 0.961. IA-LM gave a relative viability of 0.365. LC-2-ad gave a relative viability of 0.37. LCLC-97TM1 gave a relative viability of 0.167. Cell Line LCLC-103H has a relative viability of 0.516. In the case of LK-2, the relative viability is reported as 0.59. With LOU-NH91 the relative viability was 0.457.
